Consider eleven molecules from patent publication US20230295197A1, “STAT5 and STAT6 Degraders and Uses Thereof” (REGENTS OF THE UNIVERSITY OF MICHICAN, priority 2022, published 2023).

Usually DC50 stands for the concentration giving 50% degradation.

The test system of the test is STAT5. Description: Immunoblotting (Western blot) analysis of STAT5 degradation efficiency of degraders in treated cells. Type of test: cell-based. The protocol: Evaluation of the degradation efficiency of degraders may be accomplished by immunoblotting analysis. The representative general protocol is the following:
Cells are maintained in the appropriate culture medium with 10% FBS at 37° C. and an atmosphere of 5% CO2. Cell lines are used within three months of thawing fresh vials. Cells are lysed 1× Cell Lysis Buffer (Cell Signaling Technology, #9803), resolved by SDS-PAGE NuPAGE gel (Thermo Fisher Scientific), and transferred to a PVDF membrane (Millipore). Membranes are blocked using Odyssey TBS Blocker Buffer (LI-COR). IRDye 680RD and 800CW Dye-labeled secondary antibodies (LI-COR) are used. The washed membranes are scanned using Odyssey CLx imager (LI-COR). The intensity of Western blot signaling is quantitated using the Odyssey software. Primary antibodies used are: STAT5 Rabbit mAb (Cell Signaling Technology, #94205), STAT6 Rabbit mAb (Cell Signaling Technology, #5397) and GAPDH mouse monoclonal antibody (Santa Cruz Biotechnology, sc-47724).
To evaluate the degradation efficiency of degraders, immunoblotting analysis was performed. The general protocol is the following.
About 1 million cells for each data point were treated with compounds at indicated concentrations and durations. Untreated and treated cells in cell culture medium were transferred into tubes, followed by centrifugation at 3,000 rpm and 4° C. for 6 min Supernatants were removed from tubes and radioimmunoprecipitation assay (RIPA) lysis buffer supplemented with 1% protease inhibitor cocktail (Fisher Scientific cat. PI87786) and phosphatase inhibitor (Roche cat. 04906837001) were added to tubes containing the remaining cell pellets. The tubes were then left on ice for 30 min and placed in a −80° C. freezer. Subsequently they were thawed in 37° C. water, then centrifuged at 14,000 rpm for 15 min and the cell lysates transferred to new tubes. The concentration of total proteins in each tube was calculated using the Pierce BCA protein Assay kit (cat. 23225). Based on the calculated protein concentration, cell lysates containing approximately the same amount of proteins were transferred to new tubes, then distilled water and 4× Protein Sample Loading Buffer for Western Blots (LI-COR cat. 928-40004) supplemented with 20% of mercaptoethanol (Sigma Aldrich cat. M6250) were added on ice. The cell lysates were then reduced and denatured at 95° C. for 5 min. From the tubes containing cell lysates an equal amount of protein samples (20-40 μg) was loaded into precast 8%, 10%, 4%-12%, or 4%-20% Tris-glycine gels (Novex) filled with Tris-glycine SDS running buffer. After the proteins were resolved, they were transferred onto Immobile-FL PVDF Membrane (Millipore Sigma cat. IPFL00010), using Mini Trans-Blot Electrophoretic Transfer Cell (Bio-Rad 1703930). The membranes were blocked with Intercept Blocking Buffer (LI-COR cat. 927-70001) in LI-COR Western Blot boxes for 1 h at rt. The membranes were washed with 1× Tris-buffered saline-Tween-20 (TBST, 1× solution was made from 20×TBST solution, ThermoFisher Scientific cat. 28360) for 5 min 4 times. The membranes were incubated overnight at 4° C. in Intercept Blocking Buffer supplemented with primary antibodies (normally antibody:buffer 1:1000) and Tween-20. The membranes were washed with TBST for 5 min 4 times and were incubated with Intercept Blocking Buffer supplemented with IRDye 800CE Secondary Antibodies, IRDye 680RD Secondary Antibodies (LI-COR biosciences), Tween-20, and 10% SDS solution, for 1 h at rt. The membranes were then washed with TBST for 5 min 4 times and rinsed with deionized water before drying and scanning with Odyssey Dlx Amazing System (LI-COR). The immunoblots were finally quantified by the software.
In general terms: A western blot detects proteins with antibodies after separation by electrophoresis.

[1] abbreviates: KU-812 cells, read-out: DC50 S5 KU-812.
Setting [2] is: SKNO1 cells, read-out: DC50 S5 SKNO1.
[3] abbreviates: MOLM-16 cells, numeric bound, read-out: DC50 S5 MOLM-16.

The structures appear in SMILES notation. Like-named read-outs stand apart in the source and are kept apart here.

In the case of `CN(CCCC#Cc1cccc2c1CN(C1CCC(=O)NC1=O)C2=O)C(=O)CCN(C(=O)[C@@H]1CCCN1C(=O)[C@@H](NC(=O)c1cc2cc(C(F)(F)P(=O)(O)O)ccc2s1)C(C)(C)C)c1ccc2sccc2c1` (stereo partly drawn) [Compound 685, ((2-(((2S)-1-((2S)-2-(benzo[b]thiophen-5-yl(3-((5-(2-(2,6-dioxopiperidin-3-yl)-1-oxoisoindolin-4-yl)pent-4-yn-1-yl)(methyl)amino)-3-oxopropyl)carbamoyl)pyrrolidin-1-yl)-3,3-dimethyl-1-oxobutan-2-yl)carbamoyl)benzo[b]thiophen-5-yl)difluoromethyl)phosphonic acid], the DC50 was in the range of 100 to 1000 nM under setting [1] and 100 to 1000 nM under setting [2].
Turning to `CC(C)(C)[C@H](NC(=O)c1cc2cc(C(F)(F)P(=O)(O)O)ccc2s1)C(=O)N1C[C@@H](OCc2ccccc2)C[C@H]1C(=O)N(CCC(=O)NCCCCC#Cc1cccc2c1CN(C1CCC(=O)NC1=O)C2=O)c1ccc(Br)cc1` (stereo partly drawn) [Compound 624, ((2-(((2S)-1-((2S,4S)-4-(benzyloxy)-2-((4-bromophenyl)(3-((6-(2-(2,6-dioxopiperidin-3-yl)-1-oxoisoindolin-4-yl)hex-5-yn-1-yl)amino)-3-oxopropyl)carbamoyl)pyrrolidin-1-yl)-3,3-dimethyl-1-oxobutan-2-yl)carbamoyl)benzo[b]thiophen-5-yl)difluoromethyl)phosphonic acid], under setting [3], the DC50 is above 300 nM.
For `CC(C)(C)[C@H](NC(=O)c1cc2cc(C(F)(F)P(=O)(O)O)ccc2s1)C(=O)N1CCC[C@H]1C(=O)N(CCC(=O)NCCCC#Cc1cccc2c1CN(C1CCC(=O)NC1=O)C2=O)c1ccc(-c2cccs2)cc1` (stereo partly drawn) [Compound 648, ((2-(((2S)-1-((2S)-2-((3-((5-(2-(2,6-dioxopiperidin-3-yl)-1-oxoisoindolin-4-yl)pent-4-yn-1-yl)amino)-3-oxopropyl)(4-(thiophen-2-yl)phenyl)carbamoyl)pyrrolidin-1-yl)-3,3-dimethyl-1-oxobutan-2-yl)carbamoyl)benzo[b]thiophen-5-yl)difluoromethyl)phosphonic acid], the DC50 runs as follows: under setting [1], 100 to 1000 nM; (MOLM-16 cells, class symbols, read-out: DC50 S5 MOLM-16) below 100 nM; under setting [2], 100 to 1000 nM.
As for `CC(C)(C)[C@H](NC(=O)c1cc2cc(C(F)(F)P(=O)(O)O)ccc2s1)C(=O)N1C[C@H](OCc2ccccc2)C[C@H]1C(=O)N(CCC(=O)N1CCC(C#Cc2cccc3c2CN(C2CCC(=O)NC2=O)C3=O)CC1)c1ccc(Br)cc1` (stereo partly drawn) [Compound 621, ((2-(((2S)-1-((2S,4R)-4-(benzyloxy)-2-((4-bromophenyl)(3-(4-((2-(2,6-dioxopiperidin-3-yl)-1-oxoisoindolin-4-yl)ethynyl)piperidin-1-yl)-3-oxopropyl)carbamoyl)pyrrolidin-1-yl)-3,3-dimethyl-1-oxobutan-2-yl)carbamoyl)benzo[b]thiophen-5-yl)difluoromethyl)phosphonic acid], under setting [3], the DC50 is above 300 nM.
With `CC(C)(C)[C@H](NC(=O)c1cc2cc(C(F)(F)P(=O)(O)O)ccc2s1)C(=O)N1C[C@H](OCc2ccccc2)C[C@H]1C(=O)N(CCC(=O)NCCCCC#Cc1cccc2c1CN(C1CCC(=O)NC1=O)C2=O)c1ccc(Br)cc1` (stereo partly drawn) [Compound 619, ((2-(((2S)-1-((2S,4R)-4-(benzyloxy)-2-((4-bromophenyl)(3-((6-(2-(2,6-dioxopiperidin-3-yl)-1-oxoisoindolin-4-yl)hex-5-yn-1-yl)amino)-3-oxopropyl)carbamoyl)pyrrolidin-1-yl)-3,3-dimethyl-1-oxobutan-2-yl)carbamoyl)benzo[b]thiophen-5-yl)difluoromethyl)phosphonic acid], the 50% degradation concentration (DC50) under setting [3] is above 300 nM.
On to `CCN1CC[C@H]2CC[C@@H](C(=O)N(CCC(=O)N3CCC(Nc4cccc5c4CN(C4CCC(=O)NC4=O)C5=O)CC3)c3ccc(Br)cc3)N2C(=O)[C@@H](NC(=O)c2cc3cc(C(F)(F)P(=O)(O)O)ccc3s2)C1` (stereo partly drawn) [Compound 631, ((2-(((5S,8S,10aR)-8-((4-bromophenyl)(3-(4-((2-(2,6-dioxopiperidin-3-yl)-1-oxoisoindolin-4-yl)amino)piperidin-1-yl)-3-oxopropyl)carbamoyl)-3-ethyl-6-oxodecahydropyrrolo[1,2-a][1,5]diazocin-5-yl)carbamoyl)benzo[b]thiophen-5-yl)difluoromethyl)phosphonic acid], for which the DC50 under setting [3] is above 300 nM.
Turning to `CC(C)(C)[C@H](NC(=O)c1cc2cc(C(F)(F)P(=O)(O)O)ccc2s1)C(=O)N1CCC[C@H]1C(=O)N(CCC(=O)NCCCC#Cc1cccc2c1CN(C1CCC(=O)NC1=O)C2=O)c1ccc(Cl)cc1` (stereo partly drawn) [Compound 635, ((2-(((2S)-1-((2S)-2-((4-chlorophenyl)(3-((5-(2-(2,6-dioxopiperidin-3-yl)-1-oxoisoindolin-4-yl)pent-4-yn-1-yl)amino)-3-oxopropyl)carbamoyl)pyrrolidin-1-yl)-3,3-dimethyl-1-oxobutan-2-yl)carbamoyl)benzo[b]thiophen-5-yl)difluoromethyl)phosphonic acid], the DC50 is 1000 to 10000 nM under setting [1], above 300 nM under setting [3] and 1000 to 10000 nM under setting [2].
As to `CC(C)(C)[C@H](NC(=O)c1cc2cc(C(F)(F)P(=O)(O)O)ccc2s1)C(=O)N1CCC[C@H]1C(=O)N(CCC(=O)NCCCC#Cc1cccc2c1CN(C1CCC(=O)NC1=O)C2=O)c1ccc(Cl)c(F)c1` (stereo partly drawn) [Compound 636, ((2-(((2S)-1-((2S)-2-((4-chloro-3-fluorophenyl)(3-((5-(2-(2,6-dioxopiperidin-3-yl)-1-oxoisoindolin-4-yl)pent-4-yn-1-yl)amino)-3-oxopropyl)carbamoyl)pyrrolidin-1-yl)-3,3-dimethyl-1-oxobutan-2-yl)carbamoyl)benzo[b]thiophen-5-yl)difluoromethyl)phosphonic acid], the DC50 runs as follows: under setting [3], above 300 nM; under setting [2], above 10000 nM.
As to `CC(C)(C)[C@H](NC(=O)c1cc2cc(C(F)(F)P(=O)(O)O)ccc2s1)C(=O)N1C[C@@H](OCc2ccccc2)C[C@H]1C(=O)N(CCC(=O)NCCC#Cc1cccc2c1CN(C1CCC(=O)NC1=O)C2=O)c1ccc(Br)cc1` (stereo partly drawn) [Compound 622, ((2-(((2S)-1-((2S,4S)-4-(benzyloxy)-2-((4-bromophenyl)(3-((4-(2-(2,6-dioxopiperidin-3-yl)-1-oxoisoindolin-4-yl)but-3-yn-1-yl)amino)-3-oxopropyl)carbamoyl)pyrrolidin-1-yl)-3,3-dimethyl-1-oxobutan-2-yl)carbamoyl)benzo[b]thiophen-5-yl)difluoromethyl)phosphonic acid], under setting [3], the half-maximal degradation concentration (DC50) was above 300 nM.
The same measure, in the same setting: for `CCN1CC[C@H]2CC[C@@H](C(=O)N(CCC(=O)NCCCC#Cc3cccc4c3CN(C3CCC(=O)NC3=O)C4=O)c3ccc(Br)cc3)N2C(=O)[C@@H](NC(=O)c2cc3cc(C(F)(F)P(=O)(O)O)ccc3s2)C1` (stereo partly drawn) [Compound 627, ((2-(((5S,8S,10aR)-8-((4-bromophenyl)(3-((5-(2-(2,6-dioxopiperidin-3-yl)-1-oxoisoindolin-4-yl)pent-4-yn-1-yl)amino)-3-oxopropyl)carbamoyl)-3-ethyl-6-oxodecahydropyrrolo[1,2-a][1,5]diazocin-5-yl)carbamoyl)benzo[b]thiophen-5-yl)difluoromethyl)phosphonic acid] the value was above 300 nM.
As for `CC(C)(C)[C@H](NC(=O)c1cc2cc(C(F)(F)P(=O)(O)O)ccc2s1)C(=O)N1CCC[C@H]1C(=O)N(CCC(=O)N1CCC(C#Cc2cccc3c2CN(C2CCC(=O)NC2=O)C3=O)CC1)c1ccc(Br)cc1` (stereo partly drawn) [Compound 613, ((2-(((2S)-1-((2S)-2-((4-bromophenyl)(3-(4-((2-(2,6-dioxopiperidin-3-yl)-1-oxoisoindolin-4-yl)ethynyl)piperidin-1-yl)-3-oxopropyl)carbamoyl)pyrrolidin-1-yl)-3,3-dimethyl-1-oxobutan-2-yl)carbamoyl)benzo[b]thiophen-5-yl)difluoromethyl)phosphonic acid], the DC50 was above 10000 nM under setting [1], above 300 nM under setting [3] and above 10000 nM under setting [2].
